Columns and labels:
human mononuclear cells = assay: ODN 1760-induced [3H] thymidine incorporation in human mononuclear cells; type: cell-based; conditions: unfractionated human peripheral blood cells, four days
Description: [^3H] thymidine incorporation (18 hour pulse) was then measured. […] Thymidine incorporation for untreated samples was less than 0.05%. Samples from three donors were averaged, and error bars indicate 1 standard deviation.

[1] = tested on: multi-drug resistance pump; assay: Potency with inhibition of the multi-drug resistance pump; type: cell-based
7TD1 cells = assay: Inhibition of 7TD1 cell growth; type: cell-based, mouse
Description: One particularly useful cell line for the assay of immunostimulatory DNA action is the mouse-mouse hybridoma plasma cell line 7TD1(ATTC #CRL 1851), which requires exoqenous IL-6 for growth, and has been used to characterize and assay IL-6 (Papadopolous et al., 1995. J. Clin. Lab. Anal. 9:234-7; Krakauer, 1993. J. Immunoassay 14:267-77).
The 7TD1 cells were grown in RPMI 1640 supplemented with 10% fetal bovine serum (heat inactivated at 65° C., 1 hour), 0.3 grams/Liter L-glutamine, 50 milligrams/Liter gentamycin, 0.05 mM 2-mercaptoethanol, and 10 units per milliliter murine IL-6 in a 37° C. humid atmosphere with 5% CO2. Viable 7TD1 cells were counted in a hemocytometer chamber in duplicate after dilution with 0.4% trypan blue.
The 7TD1 cells were incubated for five days and were washed twice with medium to remove IL-6, and resuspended at 2×10^4 per milliliter in medium. Cell counts were performed and the percent inhibition of growth was computed. The term “anti” refers to 40 nanograms/milliliter neutralizing antibody to IL-6.

WEHI 231 cells [2] = assay: Protection by ODN against thapsigargin-induced DNA fragmentation; type: cell-based, mouse; conditions: 0.1 μM quinacrine, 10 nM thapsigargin, 24 hours
Description: The DNA fragmentation assay was carried out generally as follows. WEHI 231 cells were incubated with 0.5 μCi/milliliter [^3H] thymidine for 3 hours, centrifuged, resuspended in 2 milliliters of fresh medium at 2×10^5/milliliter, and incubated in a 24-well plate with additions as indicated. After incubation for 16-18 hours, 1 milliliter aliquots of the cells were centrifuged, washed with 200 μliters PBS. This suspension was drawn into a pipette tip containing 25 μliters of 2% SDS, and the mixture was immediately ejected into a well of a 0.8% agarose TBE gel containing 0.5 μliter/milliliter ethidium bromide. The gel was electrophoresed for 1 hour at 65 volts, destained in water, and photographed under ultraviolet light. The lanes of the gel were cut into three approximately equal portions. The first portion included the gel well and the first 2 millimeters of the running lane. The second and third pieces were the remainder of the lane. The gel portions were melted in glass scintillation vials and mixed with a 20 milliliter of scintillation cocktail and counted in a scintillation counter. The amount of fragmented DNA (DNA in the second and third gel pieces) was expressed as a percentage of the total counts recovered in the lane. […]

[3] = tested on: human peripheral blood mononuclear cells (PBMC); assay: ODN 1760-induced IL-6 production in human peripheral blood mononuclear cells; type: cell-based; conditions: 24 hours
Description: Referring to the experiments summarized in FIG. 9, human peripheral blood mononuclear cells (PBMC) from three donors were incubated with or without ODN 1760 and the indicated concentration of test compound. After 24 hours, the concentration of IL-6 was determined in the supernatant. The figure indicates the percentage of IL-6 in reference to ODN-treated cells. The IL-6 amounts for control sample per donor were as follows: donor 1, 203 picograms/milliliter; donor 2, 71.5 picograms/milliliter; donor 3, 465 picograms/milliliter. IL-6 measured from untreated cells was 0-21 picograms/milliliter. Results from the three donors were averaged, and error bars indicate 1 standard deviation.

WEHI 231 cells [4] = assay: Protection by ODN 1760 against C2-ceramide-induced inhibition of [3H] thymidine uptake; type: cell-based, mouse; conditions: 0.1 μM quinacrine, 6 μg/mL ODN
Description: The assay of [^3H] Thymidine incorporation was carried out as follows. WEHI 231 cells (200 μL at 2×10^5/milliliter, in duplicate or triplicate) were incubated in a 96-well plate (Costar, Cambridge Mass.). Additions were made as indicated. After incubating for 16 hours, 0.5 μCi [methyl-^3H] thymidine (2 Ci/millimole, DuPont NEN, Boston Mass.) was added to each well, and the cells were incubated for another 4 hours. Cellular DNA was then captured onto glass fiber filters (Whatman 934AH) using a cell harvester (Brandel, Gaithersberg Md.). The filters were dried, placed into plastic scintillation vials with 10 milliliters of scintillation cocktail (EconoSafe, Research Products International, Mount Prospect Ill.), and counted in a liquid scintillation counter (Beckman LS-3133 T). The ^3H recovered on the filter was expressed as a fraction of the ^3H added. In a typical experiment, WEHI 231 cells incorporate about 15% of added ^3H.
Referring to the experiments summarized in FIG. 6, WEHI 231 cells were incubated with C2-ceramide as indicated with or without 6 μgrams/milliliter ODN and 0.1 μM quinacrine and thymidine incorporation was estimated. Referring to the experiments summarized in FIG. 7, WEHI 231 cells were prelabeled with 0.5 μCi/milliliter [^3H] thymidine for 3 hours, and resuspended in fresh medium containing 10 nM thapsigargin. […]

WEHI 231 cells [5] = assay: DNA fragmentation assay (α-sIgM-induced apoptosis); type: cell-based, mouse; conditions: 0.1 μM quinacrine, 6 μg/mL ODN 1760, α-sIgM, 16 hours
Description: The DNA fragmentation assay was carried out generally as follows. WEHI 231 cells were incubated with 0.5 μCi/milliliter [^3H] thymidine for 3 hours, centrifuged, resuspended in 2 milliliters of fresh medium at 2×10^5/milliliter, and incubated in a 24-well plate with additions as indicated. After incubation for 16-18 hours, 1 milliliter aliquots of the cells were centrifuged, washed with 200 μliters PBS. This suspension was drawn into a pipette tip containing 25 μliters of 2% SDS, and the mixture was immediately ejected into a well of a 0.8% agarose TBE gel containing 0.5 μliter/milliliter ethidium bromide. The gel was electrophoresed for 1 hour at 65 volts, destained in water, and photographed under ultraviolet light. The lanes of the gel were cut into three approximately equal portions. […] The gel portions were melted in glass scintillation vials and mixed with a 20 milliliter of scintillation cocktail and counted in a scintillation counter. The amount of fragmented DNA (DNA in the second and third gel pieces) was expressed as a percentage of the total counts recovered in the lane.
Referring to the experiments summarized in FIG. 2a, WEHI 231 cells (2×10^5 per milliliter) were incubated with or without 6 μgrams/milliliter ODN 1760, 10 μgrams/milliliter α-sIgM, or 0.1 μM quinacrine as indicated. Live cells were counted daily. […]

[6] = 6 μg/mL ODN 1760, 0.1 μM compound
[7] = 6 μg/mL ODN 1760, 0.3 μM compound
[8] = 6 μg/mL ODN 1760, 1 μM compound
[9] = 10 μg/mL IL-6 + 0.1 μM compound
[10] = 10 μg/mL IL-6 + 0.3 μM compound

CCN(CC)CCCC(C)Nc1c2ccc(Cl)cc2nc2ccc(OC)cc12 (centres unmarked) [quinacrine]
Effect on ODN 1760-induced thymidine incorporation (FIG. 8) (human mononuclear cells): inhibited
Change of potency on inhibition of the multi-drug resistance pump [1]: magnified
7TD1 cells/μL (7TD1 cells; [6]): 20 cells/μL
% Growth Inhibition (7TD1 cells; [6]): 95%
7TD1 cells/μL (7TD1 cells; [7]): 20 cells/μL
% Growth Inhibition (7TD1 cells; [7]): 95%
7TD1 cells/μL (7TD1 cells; [8]): 15 cells/μL
% Growth Inhibition (7TD1 cells; [8]): 96.3%
7TD1 cells/μL (7TD1 cells; [9]): 707 cells/μL
% Growth Inhibition (7TD1 cells; [9]): 20.2%
7TD1 cells/μL (7TD1 cells; [10]): 595 cells/μL
% Growth Inhibition (7TD1 cells; [10]): 32.9%
7TD1 cells/μL (7TD1 cells; 10 μg/mL IL-6 + 1 μM compound): 587 cells/μL
% Growth Inhibition (7TD1 cells; 10 μg/mL IL-6 + 1 μM compound): 33.8%
Effect on IL-6-induced growth (7TD1 cells; 7TD1 cells, IL-6): little effect
Effect on growth stimulation by CpG-ODN (7TD1 cells; 7TD1 cells, ODN 1760): blocked
Block of ODN 1760 protection against thapsigargin-induced DNA fragmentation (FIG. 7) (WEHI 231 cells [2]): blocked the protective effect
Effect on ODN 1760-induced IL-6 production (FIG. 9) [3]: inhibited
Block of ODN 1760 protection against C2-ceramide (FIG. 6) (WEHI 231 cells [4]): blocked this protective effect
Reversal of ODN 1760 protection, percentage of fragmented DNA (FIG. 2b) (WEHI 231 cells [5]): reversed this protection
